{
  "source": "ChEMBL document CHEMBL5385847",
  "about": "“Design, synthesis and biological evaluation of a new class of 7H-pyrrolo[2,3-d]pyrimidine derivatives as Mps1 inhibitors for the treatment of breast cancer” (Eur J Med Chem, 2023)",
  "key": {"[1]": {"assay": "Antitumor activity against mouse 4T1-Luc cells xenografted in BALB/C mouse assessed as reduction in mean tumor weight at 60 mg/kg, po qd treated for 15 days (reference value: 3.56 g)", "assay_type": "functional", "settings": "time 15 day"}, "[2]": {"test_system": "MCF7", "assay": "Induction of DNA damage in human MCF7 cells assessed as increase in gamma-H2AX level incubated for 2 hrs by Western blot analysis", "assay_type": "functional, cell-based", "settings": "dose <= 3.0 µM"}, "[3]": {"test_system": "Tyrosine-protein kinase ABL1 (Homo sapiens), P00519 [T315I]", "assay": "Inhibition of human Abl T315I mutant at 1 uM by KINOMEscan assay relative to control"}, "[4]": {"test_system": "4T1-Luc", "assay": "Antitumor activity against mouse 4T1-Luc cells xenografted in BALB/C mouse assessed as delay in tumor growth at 30 to 60 mg/kg, po qd treated for 15 days", "assay_type": "functional, organism-based", "settings": "dose 30-60 mg/kg, time 15.0 day"}, "[5]": {"test_system": "4T1", "assay": "Induction of apoptosis in 4T1 cells assessed as early apoptotic cells at 5 uM incubated for 48 hrs by Annexin V-FITC/PI staining based flow cytometry (reference value: 0.32 %)", "assay_type": "functional, Mus musculus"}, "[6]": {"target": "Proto-oncogene tyrosine-protein kinase Src (Homo sapiens) (UniProt P12931)", "sequence (P12931 2-536 limits assumed)": "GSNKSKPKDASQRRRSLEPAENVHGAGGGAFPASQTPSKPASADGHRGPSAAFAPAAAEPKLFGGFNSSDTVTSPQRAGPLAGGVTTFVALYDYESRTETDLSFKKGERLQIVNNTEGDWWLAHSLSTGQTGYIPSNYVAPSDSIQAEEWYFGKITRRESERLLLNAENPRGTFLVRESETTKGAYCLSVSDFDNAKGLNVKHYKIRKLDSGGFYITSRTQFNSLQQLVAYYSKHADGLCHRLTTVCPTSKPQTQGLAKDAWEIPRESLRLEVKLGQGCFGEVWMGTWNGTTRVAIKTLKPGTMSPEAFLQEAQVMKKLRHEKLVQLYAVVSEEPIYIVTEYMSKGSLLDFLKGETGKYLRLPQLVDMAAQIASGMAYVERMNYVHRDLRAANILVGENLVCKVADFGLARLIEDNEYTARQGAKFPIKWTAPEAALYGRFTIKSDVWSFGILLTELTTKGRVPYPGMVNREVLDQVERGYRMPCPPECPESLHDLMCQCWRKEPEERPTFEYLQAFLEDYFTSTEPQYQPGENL", "assay": "Inhibition of human cSRC at 0.1 uM by KINOMEscan assay relative to control"}, "[7]": {"test_system": "MCF7", "assay": "Induction of apoptosis in human MCF7 cells assessed as increase in cleaved caspase-3 level upto 3 uM incubated for 48 hrs by Western blot analysis", "assay_type": "functional, cell-based"}, "[8]": {"test_system": "4T1", "assay": "Antiproliferative activity against 4T1 cells upto 5 uM measured after 14 days by colony formation assay", "assay_type": "functional, cell-based", "settings": "Mus musculus, time 14.0 day"}, "[9]": {"test_system": "MCF7", "assay": "Antiproliferative activity against human MCF7 cells upto 5 uM measured after 14 days by colony formation assay", "assay_type": "functional, cell-based", "settings": "time 14.0 day"}, "[10]": {"assay": "Toxicity in BALB/C mouse xenografted with mouse 4T1-Luc cells assessed as histological change in kidneys at 30 to 60 mg/kg, po qd treated for 15 days by H and E staining based analysis", "assay_type": "organism-based", "settings": "in vivo, 360 h, dose 30-60 mg/kg, time 15 day"}, "[11]": {"target": "ALK tyrosine kinase receptor (Homo sapiens) (UniProt Q9UM73)", "sequence (Q9UM73 19-1620 limits assumed)": "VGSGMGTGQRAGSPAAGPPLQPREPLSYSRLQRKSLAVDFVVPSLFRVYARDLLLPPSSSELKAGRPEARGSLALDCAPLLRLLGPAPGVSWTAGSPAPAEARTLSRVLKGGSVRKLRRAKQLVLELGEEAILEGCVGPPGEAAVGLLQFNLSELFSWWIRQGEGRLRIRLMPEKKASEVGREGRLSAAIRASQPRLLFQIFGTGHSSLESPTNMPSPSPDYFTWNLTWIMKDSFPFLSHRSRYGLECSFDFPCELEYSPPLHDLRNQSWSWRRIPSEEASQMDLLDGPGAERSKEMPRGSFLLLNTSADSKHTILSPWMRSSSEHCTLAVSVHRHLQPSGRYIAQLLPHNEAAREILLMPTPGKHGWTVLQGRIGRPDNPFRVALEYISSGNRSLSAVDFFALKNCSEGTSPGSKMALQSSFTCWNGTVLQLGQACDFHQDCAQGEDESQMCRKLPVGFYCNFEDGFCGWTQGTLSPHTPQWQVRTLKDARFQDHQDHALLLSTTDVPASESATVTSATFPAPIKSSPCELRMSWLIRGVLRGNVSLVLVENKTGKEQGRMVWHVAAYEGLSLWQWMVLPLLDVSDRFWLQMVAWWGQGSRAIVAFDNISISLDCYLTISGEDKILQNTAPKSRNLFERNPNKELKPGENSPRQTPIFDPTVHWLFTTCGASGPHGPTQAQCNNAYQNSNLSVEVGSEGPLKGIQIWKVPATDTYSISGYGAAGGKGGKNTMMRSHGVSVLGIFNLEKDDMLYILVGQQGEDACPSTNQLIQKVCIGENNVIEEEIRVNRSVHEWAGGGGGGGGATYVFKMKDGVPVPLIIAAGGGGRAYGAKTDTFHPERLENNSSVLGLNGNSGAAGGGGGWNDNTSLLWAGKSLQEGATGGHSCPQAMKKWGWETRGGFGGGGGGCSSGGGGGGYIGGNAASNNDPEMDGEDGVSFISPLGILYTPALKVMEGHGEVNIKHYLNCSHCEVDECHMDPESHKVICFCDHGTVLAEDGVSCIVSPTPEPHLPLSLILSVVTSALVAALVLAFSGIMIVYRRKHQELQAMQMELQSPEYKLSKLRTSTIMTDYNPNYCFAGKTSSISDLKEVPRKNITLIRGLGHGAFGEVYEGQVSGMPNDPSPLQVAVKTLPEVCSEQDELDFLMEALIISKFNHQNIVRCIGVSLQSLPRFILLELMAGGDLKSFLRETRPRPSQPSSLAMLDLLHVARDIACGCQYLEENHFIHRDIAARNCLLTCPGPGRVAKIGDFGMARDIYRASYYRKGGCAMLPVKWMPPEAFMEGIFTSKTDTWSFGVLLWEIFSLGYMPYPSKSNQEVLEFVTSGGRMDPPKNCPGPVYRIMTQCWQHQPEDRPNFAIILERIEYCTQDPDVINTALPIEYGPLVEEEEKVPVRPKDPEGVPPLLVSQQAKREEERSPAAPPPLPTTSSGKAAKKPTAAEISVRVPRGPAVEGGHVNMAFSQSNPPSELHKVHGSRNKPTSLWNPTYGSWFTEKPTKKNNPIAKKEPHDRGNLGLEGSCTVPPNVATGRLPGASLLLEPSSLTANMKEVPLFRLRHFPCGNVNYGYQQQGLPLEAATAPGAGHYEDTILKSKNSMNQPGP", "assay": "Inhibition of human ALK at 0.1 uM by KINOMEscan assay relative to control"}, "[12]": {"test_system": "GES1", "assay": "Antiproliferative activity against human GES1 cells assessed as inhibition of cell viability by MTT assay", "assay_type": "toxicity, cell-based"}, "[13]": {"test_system": "MCF7", "assay": "Induction of cell cycle arrest in human MCF7 cells at G2/M phase assessed as decrease in cyclin B1 level incubated for 24 hrs by Western blot analysis", "assay_type": "functional, cell-based", "settings": "dose <= 3.0 µM"}, "[14]": {"target": "Tyrosine-protein kinase Yes (Homo sapiens) (UniProt P07947)", "sequence (P07947 2-543 limits assumed)": "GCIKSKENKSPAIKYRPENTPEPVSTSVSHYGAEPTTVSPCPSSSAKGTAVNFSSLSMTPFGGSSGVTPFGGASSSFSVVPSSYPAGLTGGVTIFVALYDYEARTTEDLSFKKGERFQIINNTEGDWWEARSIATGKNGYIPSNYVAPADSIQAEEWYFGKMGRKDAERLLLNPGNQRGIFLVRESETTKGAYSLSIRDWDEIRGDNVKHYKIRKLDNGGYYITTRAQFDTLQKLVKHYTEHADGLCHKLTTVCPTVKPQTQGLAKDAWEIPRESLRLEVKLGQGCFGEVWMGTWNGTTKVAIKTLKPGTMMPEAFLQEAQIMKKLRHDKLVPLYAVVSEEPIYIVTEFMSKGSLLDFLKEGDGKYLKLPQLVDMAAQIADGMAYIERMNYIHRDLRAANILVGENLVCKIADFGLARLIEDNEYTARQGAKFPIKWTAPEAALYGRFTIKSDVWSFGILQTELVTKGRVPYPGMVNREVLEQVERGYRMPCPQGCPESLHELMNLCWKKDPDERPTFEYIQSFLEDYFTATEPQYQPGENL", "assay": "Inhibition of human Yes at 1 uM by KINOMEscan assay relative to control"}, "[15]": {"test_system": "MCF7", "assay": "Induction of apoptosis in human MCF7 cells assessed as late apoptotic cells at 5 uM incubated for 48 hrs by Annexin V-FITC/PI staining based flow cytometry (reference value: 0.63 %)", "assay_type": "functional"}, "[16]": {"assay": "Antitumor activity against mouse 4T1-Luc cells xenografted in BALB/C mouse assessed as reduction in mean tumor weight at 30 mg/kg, po qd treated for 15 days (reference value: 3.56 g)", "assay_type": "functional", "settings": "time 15 day"}, "[17]": {"test_system": "4T1", "assay": "Induction of DNA damage in 4T1 cells assessed as increase in gamma-H2AX level incubated for 2 hrs by Western blot analysis", "assay_type": "functional, cell-based", "settings": "Mus musculus, dose <= 3.0 µM"}, "[18]": {"test_system": "MCF7", "assay": "Induction of apoptosis in human MCF7 cells assessed as early apoptotic cells at 0.5 uM incubated for 48 hrs by Annexin V-FITC/PI staining based flow cytometry (reference value: 1.19 %)", "assay_type": "functional"}, "[19]": {"test_system": "L02", "assay": "Antiproliferative activity against human L02 cells assessed as inhibition of cell viability by MTT assay", "assay_type": "toxicity, cell-based"}, "[20]": {"target": "T1, Dual specificity protein kinase TTK (Homo sapiens) (UniProt P33981)", "T1 sequence (whole entry)": "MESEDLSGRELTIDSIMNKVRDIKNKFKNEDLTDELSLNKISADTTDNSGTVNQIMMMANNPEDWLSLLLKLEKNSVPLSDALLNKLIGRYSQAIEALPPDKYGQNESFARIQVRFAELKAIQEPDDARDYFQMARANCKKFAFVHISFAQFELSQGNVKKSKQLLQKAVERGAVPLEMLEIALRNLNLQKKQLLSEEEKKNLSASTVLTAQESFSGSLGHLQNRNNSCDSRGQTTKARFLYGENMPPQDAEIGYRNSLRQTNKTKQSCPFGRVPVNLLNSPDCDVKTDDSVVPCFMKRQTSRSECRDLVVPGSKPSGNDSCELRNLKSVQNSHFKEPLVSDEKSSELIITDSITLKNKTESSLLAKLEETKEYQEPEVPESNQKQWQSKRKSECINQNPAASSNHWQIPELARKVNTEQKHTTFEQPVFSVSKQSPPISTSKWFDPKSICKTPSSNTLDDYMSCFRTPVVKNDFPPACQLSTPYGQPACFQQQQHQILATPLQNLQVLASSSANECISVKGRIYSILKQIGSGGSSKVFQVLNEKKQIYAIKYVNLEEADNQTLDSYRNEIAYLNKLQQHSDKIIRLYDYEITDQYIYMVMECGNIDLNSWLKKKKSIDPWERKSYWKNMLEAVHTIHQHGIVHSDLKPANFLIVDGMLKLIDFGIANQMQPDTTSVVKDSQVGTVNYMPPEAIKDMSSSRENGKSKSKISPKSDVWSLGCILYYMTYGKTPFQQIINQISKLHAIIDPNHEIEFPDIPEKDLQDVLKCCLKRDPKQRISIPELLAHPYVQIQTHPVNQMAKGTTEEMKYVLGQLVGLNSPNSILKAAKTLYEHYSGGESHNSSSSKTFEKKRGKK", "assay": "Inhibition of human Mps1 at 0.1 uM by KINOMEscan assay relative to control"}, "[21]": {"assay": "Toxicity in BALB/C mouse xenografted with mouse 4T1-Luc cells assessed as histological change in lung at 30 to 60 mg/kg, po qd treated for 15 days by H and E staining based analysis", "assay_type": "organism-based", "settings": "in vivo, 360 h, dose 30-60 mg/kg, time 15 day"}, "[22]": {"test_system": "4T1", "assay": "Induction of cell cycle arrest in 4T1 cells at G2/M phase assessed as decrease in cyclin B1 level incubated for 24 hrs by Western blot analysis", "assay_type": "functional, cell-based", "settings": "Mus musculus, dose <= 3.0 µM"}, "[23]": {"test_system": "4T1", "assay": "Induction of apoptosis in 4T1 cells assessed as necrotic cells at 1 uM incubated for 48 hrs by Annexin V-FITC/PI staining based flow cytometry (reference value: 0.20 %)", "assay_type": "functional, Mus musculus"}, "[24]": {"test_system": "4T1", "assay": "Induction of apoptosis in 4T1 cells assessed as early apoptotic cells at 1 uM incubated for 48 hrs by Annexin V-FITC/PI staining based flow cytometry (reference value: 0.32 %)", "assay_type": "functional, Mus musculus"}, "[25]": {"test_system": "4T1", "assay": "Induction of cell cycle arrest in 4T1 cells at G2/M phase incubated for 24 hrs by Annexin V/PI staining based flow cytometry", "assay_type": "functional", "settings": "Mus musculus, dose <= 5.0 µM"}, "[26]": {"test_system": "4T1", "assay": "Induction of apoptosis in 4T1 cells assessed as late apoptotic cells at 5 uM incubated for 48 hrs by Annexin V-FITC/PI staining based flow cytometry (reference value: 1.73 %)", "assay_type": "functional, Mus musculus"}, "[27]": {"test_system": "4T1", "assay": "Induction of apoptosis in 4T1 cells assessed as late apoptotic cells at 0.5 uM incubated for 48 hrs by Annexin V-FITC/PI staining based flow cytometry (reference value: 1.73 %)", "assay_type": "functional, Mus musculus"}},
  "note": "Activity calls are given as the source filed them. No cut-off for these calls is given here.",
  "data": [
    {"compound": "CN1CCN(c2ccc(Nc3nc(-n4nc(N)c5ccccc54)c4cc[nH]c4n3)cc2)CC1", "values": [
      {"measurement": "Activity", "setting": "[1]", "result": 0.97, "unit": "g"},
      {"measurement": "Activity", "setting": "[2]", "result": "Dose-Dependent Effect"},
      {"measurement": "inhibition", "setting": "[3]", "result": 100, "unit": "%"},
      {"measurement": "Activity", "setting": "[4]", "result": "Active"},
      {"measurement": "Activity", "setting": "[5]", "result": 2.71, "unit": "%"},
      {"measurement": "inhibition", "setting": "[6]", "result": 52, "unit": "%"},
      {"measurement": "Activity", "setting": "[7]", "result": "Active"},
      {"measurement": "Activity", "setting": "[8]", "result": "Active"},
      {"measurement": "Activity", "setting": "[9]", "result": "Active"},
      {"measurement": "Activity", "setting": "[10]", "result": "Non-Toxic"},
      {"measurement": "inhibition", "setting": "[11]", "result": 86, "unit": "%"},
      {"measurement": "Activity", "setting": "[12]", "result": "Non-Toxic"},
      {"measurement": "Activity", "setting": "[13]", "result": "Dose-Dependent Effect"},
      {"measurement": "inhibition", "setting": "[14]", "result": 100, "unit": "%"},
      {"measurement": "Activity", "setting": "[15]", "result": 17.53, "unit": "%"},
      {"measurement": "Activity", "setting": "[16]", "result": 1.4, "unit": "g"},
      {"measurement": "Activity", "setting": "[17]", "result": "Dose-Dependent Effect"},
      {"measurement": "Activity", "setting": "[18]", "result": 6.55, "unit": "%"},
      {"measurement": "Activity", "setting": "[19]", "result": "Non-Toxic"},
      {"measurement": "inhibition", "setting": "[20]", "result": 87, "unit": "%"},
      {"measurement": "Activity", "setting": "[21]", "result": "Non-Toxic"},
      {"measurement": "Activity", "setting": "[22]", "result": "Dose-Dependent Effect"},
      {"measurement": "Activity", "setting": "[23]", "result": 0.6, "unit": "%"},
      {"measurement": "Activity", "setting": "[24]", "result": 1.61, "unit": "%"},
      {"measurement": "Activity", "setting": "[25]", "result": "Dose-Dependent Effect"},
      {"measurement": "Activity", "setting": "[26]", "result": 20.66, "unit": "%"},
      {"measurement": "Activity", "setting": "[27]", "result": 5.41, "unit": "%"}
    ]}
  ]
}
